Results taken from patent EP0450097B1, “BENZOHETEROCYCLIC COMPOUNDS” (OTSUKA PHARMACEUTICAL CO., LTD., priority 1989, dated 1991).

These compounds were tested against T1, V₂ receptor (Rattus norvegicus, UniProt Q00788) (assay: V₂ receptor binding assay ([³H]-Arg-vasopressin, rat kidney plasma membrane preparations)). Conditions: 4°C for 3 hours.
T1 construct: Using rat kidney plasma membrane preparations; from tissue; host or cells: rat kidney plasma membranes
Protocol: Using rat kidney plasma membrane preparations prepared according to O. Hechter's method [cf: J. Bio. […] After incubation, the mixture is filtered using the glass filter (GF/F) so as to separate the membrane preparation combined with vasopressin and then washed twice with the buffer (5 ml). This glass filter is taken out and mixed with liquid scintillation cocktail. The amount of [³H]-vasopressin combined with the membrane is measured by liquid scintillation counter and the rate of the inhibitory effect of the test compound is estimated according to the following equation. Rate of the inhibitory effect (%) = 100 -(C1 - B1)/(C0 - B1)X 100 [formula] C¹: The amount of [³H]-vasopressin combined with the membrane in the presence of the test compound (in prescribed amount). C⁰: The amount of [³H)-vasopressin combined with the membrane in the absence of the test compound. B¹: The amount of [³H]-vasopressin combined with the membrane in the presence of the excess amount of vasopressin (10⁻⁶ M).
The results are expressed as IC₅₀ values, which is the concentration of the test compound required to achieve the inhibitory effect in the rate of 50 %.

T1 sequence (Q00788 whole entry): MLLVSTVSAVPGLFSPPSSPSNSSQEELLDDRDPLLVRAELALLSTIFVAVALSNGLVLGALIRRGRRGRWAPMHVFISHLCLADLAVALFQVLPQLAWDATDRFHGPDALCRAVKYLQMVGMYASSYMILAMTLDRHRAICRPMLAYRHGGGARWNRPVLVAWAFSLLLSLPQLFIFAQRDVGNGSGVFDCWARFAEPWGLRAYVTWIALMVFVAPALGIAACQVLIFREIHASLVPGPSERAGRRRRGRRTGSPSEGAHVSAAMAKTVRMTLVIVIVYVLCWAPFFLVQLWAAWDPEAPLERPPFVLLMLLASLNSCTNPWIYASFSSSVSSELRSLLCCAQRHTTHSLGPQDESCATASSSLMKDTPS

Structure (SMILES) | IC50 [nM]
Cc1ccccc1C(=O)Nc1ccc(C(=O)N2CCCC(C)(O)c3ccccc32)cc1 (centres unmarked) [compound 261] | 11
O=C(Nc1ccc(C(=O)N2CCCC(N3CCN(Cc4ccccc4)CC3)c3ccccc32)cc1)c1ccccc1Cl (centres unmarked) [compound 203] | 70
O=C(Nc1ccc(C(=O)N2CCCc3ccccc32)cc1)C1CCCCC1 [compound 14] | 230
Cc1ccccc1C(=O)Nc1ccc(C(=O)N2CCN(C)c3ccccc32)cc1 [compound 51] | 400
Cc1ccccc1C(=O)Nc1ccc(C(=O)N2CC=Cc3ccccc32)cc1 [compound 217] | 370
CC(=O)N1CCN(C2CCCN(C(=O)c3ccc(NC(=O)c4ccccc4Cl)cc3)c3ccccc32)CC1 (centres unmarked) [compound 205] | 74
CNCC(=O)NC1CCCN(C(=O)c2ccc(NC(=O)c3ccccc3C)cc2)c2ccccc21 (centres unmarked) [compound 291] | 130
Cc1ccccc1C(=O)Nc1ccc(C(=O)N2CCCC(N(C)C)c3ccccc32)c(N(C)C)c1 (centres unmarked) [compound 197] | 990
O=C(Nc1ccc(C(=O)N2CCCC(NC3CC3)c3ccccc32)c(Cl)c1)c1ccc(Cl)cc1Cl (centres unmarked) [compound 186] | 30
COc1cc(C(=O)N2CCC(N(C)C)c3ccccc32)ccc1NC(=O)c1cccc(C)c1C (centres unmarked) [compound 144] | 20
CN1CCN(C2CCCN(C(=O)c3ccc(NC(=O)c4ccccc4Cl)cc3)c3ccccc32)CC1 (centres unmarked) [compound 206] | 88
Cc1ccccc1C(=O)Nc1ccc(C(=O)N2CCCC(O)(CO)c3ccccc32)c(Cl)c1 (centres unmarked) [compound 225] | 30
Cc1ccccc1C(=O)Nc1ccc(C(=O)N2CCCC(N(C)C)c3ccccc32)c(C)c1 (centres unmarked) [compound 218] | 22
O=C(Nc1cccc(Cl)c1)c1ccc(C(=O)N2CCCc3ccccc32)cc1 [compound 23] | 1070
CN(C)C1c2ccccc2N(C(=O)c2ccc(NC(=O)c3ccccc3Cl)cc2)CCC1O (centres unmarked) [compound 216] | 910
Cc1cccc(C(=O)Nc2ccc(C(=O)N3CCOCc4ccccc43)cc2)c1 [compound 41] | 200
Cc1ccccc1C(=O)Nc1ccc(C(=O)N2CCCc3ccccc32)cc1 [compound 7] | 200
O=C(Nc1ccc(C(=O)N2CCCc3ccccc32)cc1)c1ccccc1C(F)(F)F [compound 8] | 320
Cc1cccc(C(=O)Nc2ccc(C(=O)N3CC(C)Cc4ccccc43)cc2)c1C (centres unmarked) [compound 48] | 21
CN1CCN(C(=O)c2ccc(NC(=O)c3cc(Cl)cc(Cl)c3)cc2)c2ccccc21 [compound 53] | 1600
CNC1CCCN(C(=O)c2ccc(NC(=O)c3ccccc3Cl)cc2Cl)c2ccccc21 (centres unmarked) [compound 176] | 4
COc1cc(NC(=O)c2ccccc2Cl)ccc1C(=O)N1CCCC(N(C)C)c2ccccc21 (centres unmarked) [compound 177] | 150
CNC1c2ccccc2N(C(=O)c2ccc(NC(=O)c3ccccc3Cl)cc2Cl)CCC1O (centres unmarked) [compound 224] | 380
CNC1CCCN(C(=O)c2ccc(NC(=O)c3ccccc3Cl)cc2)c2ccccc21 (centres unmarked) [compound 181] | 38
CNC1CCCN(C(=O)c2ccc(NC(=O)c3ccccc3C)cc2)c2c(Cl)cccc21 (centres unmarked) [compound 318] | 60

Structure (SMILES) | IC50 [nM]
Cc1cccc(OCC(=O)Nc2ccc(C(=O)N3CCCCc4ccccc43)cc2)c1 [compound 107] | 32
Cc1ccccc1C(=O)Nc1ccc(C(=O)N2CCCC(O)c3ccccc32)c(Cl)c1 (centres unmarked) [compound 210] | 4
Cc1ccccc1C(=O)Nc1ccc(C(=O)N2CCCC(N(C)C)c3ccccc32)cc1F (centres unmarked) [compound 232] | 20
COc1cc(NC(=O)c2ccccc2C)ccc1C(=O)N1CCCC(N(C)C)c2ccccc21 (centres unmarked) [compound 183] | 260
CC(=O)Nc1cccc(C(=O)Nc2ccc(C(=O)N3CCCC(N(C)C)c4ccccc43)cc2)c1 (centres unmarked) [compound 300] | 480
CCN(CC(=O)Nc1ccc(C(=O)N2CCCC(NC)c3ccccc32)c(Cl)c1)c1ccccc1 (centres unmarked) [compound 221] | 24
Cc1cc(NC(=O)c2ccccc2Cl)ccc1C(=O)N1CCCC(N(C)C)c2ccccc21 (centres unmarked) [compound 219] | 23
Cc1cccc(C(=O)Nc2ccc(C(=O)N3CC(N4CCCC4)Cc4ccccc43)cc2)c1C (centres unmarked) [compound 93] | 520
O=C(Nc1ccc(C(=O)N2CCCc3ccccc32)cc1)c1ccccc1 [Test compound 1, 1-(4-Benzoylaminobenzoyl)-1,2,3,4-tetrahydroquinoline] | 980
Cc1ccccc1NC(=O)c1ccc(C(=O)N2CCCc3ccccc32)cc1 [compound 22] | 330
Cc1cccc(C(=O)Nc2ccc(C(=O)N3CCCN(C)c4ccccc43)cc2)c1C [compound 91] | 5
CN1CCN(C(=O)c2ccc(NC(=O)C3CCCCC3)cc2)c2ccccc21 [compound 50] | 1300
CCCN1CCN(C(=O)c2ccc(NC(=O)c3cccc(C)c3C)cc2)c2ccccc2C1 [compound 86] | 580
CC1CCN(C(=O)c2ccc(NC(=O)c3cc(Cl)cc(Cl)c3)cc2)c2ccccc21 (centres unmarked) [compound 55] | 91
O=C(Nc1ccc(C(=O)N2CCCc3ccccc32)cc1)c1cc(Cl)cc(Cl)c1 [compound 10] | 82
O=C(Nc1ccc(C(=O)N2CCCCCc3ccccc32)cc1)c1cc(Cl)cc(Cl)c1 [compound 39] | 71
CN(C)C1CCCN(C(=O)c2ccc(NC(=O)CCc3ccccc3)cc2)c2ccccc21 (centres unmarked) [compound 306] | 77
Cc1ccccc1C(=O)Nc1ccc(C(=O)N2CCC(CN(C)C)c3ccccc32)cc1 (centres unmarked) [compound 145] | 60
CN1CCN(C(=O)c2ccc(NC(=O)c3cc(Cl)cc(Cl)c3)cc2Cl)c2ccccc2C1 [compound 140] | 24
CCOC(=O)CN(C)C1CCCN(C(=O)c2ccc(NC(=O)c3ccccc3C)cc2)c2ccccc21 (centres unmarked) [compound 262] | 29
CNC1CCCCN(C(=O)c2ccc(NC(=O)c3ccccc3C)cc2)c2ccccc21 (centres unmarked) [compound 320] | 39
CN(C)C1CCN(C(=O)c2ccc(NC(=O)c3cc(Cl)cc(Cl)c3)cc2)c2ccccc21 (centres unmarked) [compound 100] | 11
Cc1ccccc1C(=O)Nc1ccc(C(=O)N2CCCC(OC(N)=O)c3ccccc32)cc1 (centres unmarked) [compound 191] | 9
Cc1ccccc1C(=O)Nc1ccc(C(=O)N2CCCC(N(C)CC(=O)N(C)C)c3ccccc32)cc1 (centres unmarked) [compound 295] | 26
Cc1ccccc1C(=O)Nc1ccc(C(=O)N2CCCC(CN(C)C)c3ccccc32)cc1 (centres unmarked) [compound 268] | 18

Structure (SMILES) | IC50 [nM]
CCNC1CCCN(C(=O)c2ccc(NC(=O)c3ccccc3C)cc2)c2ccccc21 (centres unmarked) [compound 229] | 29
O=C(Nc1ccc(C(=O)N2CCCC(N3CCCC3)c3ccccc32)cc1)c1ccccc1Cl (centres unmarked) [compound 204] | 110
COc1cc(C(=O)N2CCCC(N(C)C)c3ccccc32)ccc1NC(=O)c1ccc(Cl)cc1Cl (centres unmarked) [compound 248] | 60
O=C(Nc1ccc(C(=O)N2CCOCc3ccccc32)cc1)c1cc(Cl)cc(Cl)c1 [compound 43] | 170
COC1(OC)CCN(C(=O)c2ccc(NC(=O)c3ccccc3C)cc2)c2ccccc2C1 [compound 233] | 150
CC1Cc2ccccc2N(C(=O)c2ccc(NC(=O)c3cc(Cl)cc(Cl)c3)cc2)C1 (centres unmarked) [compound 49] | 63
O=C(Nc1ccc(C(=O)N2CCCC(NCCc3ccccn3)c3ccccc32)cc1)c1ccccc1Cl (centres unmarked) [compound 257] | 45
CNC1CCCN(C(=O)c2ccc(NC(=O)c3ccccc3C)cc2Cl)c2ccccc21 (centres unmarked) [compound 182] | 5
COc1cccc(C(=O)Nc2ccc(C(=O)N3CCCc4ccccc43)cc2)c1 [compound 3] | 400
O=C(Nc1ccc(C(=O)N2CCCC(N3CCCCC3)c3ccccc32)cc1)c1ccccc1Cl (centres unmarked) [compound 202] | 140
Cc1ccccc1C(=O)Nc1ccc(C(=O)N2CCCC(NC(=O)CN)c3ccccc32)cc1 (centres unmarked) [compound 299] | 220
COc1cccc(C(=O)Nc2ccc(C(=O)N3CCN(C)Cc4ccccc43)cc2)c1 [compound 83] | 730
Cc1ccccc1C(=O)Nc1ccc(C(=O)N2CCCC(N(C)CCCOC3CCCCO3)c3ccccc32)cc1 (centres unmarked) [compound 267] | 120
N#Cc1cccc(C(=O)Nc2ccc(C(=O)N3CCCc4ccccc43)cc2)c1 [compound 4] | 580
CCN(C)C1CCCN(C(=O)c2ccc(NC(=O)c3ccccc3Cl)cc2Cl)c2ccccc21 (centres unmarked) [compound 314] | 96
Cc1ccc(NCC(=O)Nc2ccc(C(=O)N3CCCCc4ccccc43)cc2)c(C)c1 [compound 113] | 280
Cc1ccccc1C(=O)Nc1ccc(C(=O)N2CCCC(NC3CCCC3)c3ccccc32)c(Cl)c1 (centres unmarked) [compound 263] | 53
COc1cc(C(=O)N2CCN(C)Cc3ccccc32)ccc1NC(=O)c1cc(Cl)cc(Cl)c1 [compound 92] | 410
O=C(Nc1cc(Cl)cc(Cl)c1)c1ccc(C(=O)N2CCCc3ccccc32)cc1 [compound 24] | 1090
O=C(CC1CCCCC1)Nc1ccc(C(=O)N2CCCc3ccccc32)cc1 [compound 12] | 1970
O=C(Nc1ccc(C(=O)N2CCCCCc3ccccc32)cc1)c1ccccc1 [compound 35] | 200
CN(C)C1CCCN(C(=O)c2ccc(NC(=O)c3ccccc3C(C)(C)C)cc2Cl)c2ccccc21 (centres unmarked) [compound 175] | 38
Cc1ccccc1N(C)CC(=O)Nc1ccc(C(=O)N2CCCC(N(C)C)c3ccccc32)cc1 (centres unmarked) [compound 317] | 72
Cc1cccc(C(=O)Nc2ccc(C(=O)N3CCOCc4ccccc43)cc2)c1C [compound 42] | 63
